Data: ChEMBL document CHEMBL4145625 (J Med Chem, 2018)
Converted amounts (≈) assume the structure as drawn.

Key:
NCI-H460 [1] = test: Antitumor activity against human NCI-H460 cells xenografted in BALB/c nude mouse assessed as tumor growth inhibition at 24 mg/kg, ip administered once daily after 20 days relative to control; assay type: functional; details: 480 h, read-out: TGI
Mus musculus [2] = test: Toxicity in human NCI-H460 cells xenografted BALB/c nude mouse assessed as reduction in body weight at 24 mg/kg, ip administered once daily after 20 days; assay type: organism-based; details: in vivo, 480 h
Mus musculus [3] = test: Toxicity in human NCI-H460 cells xenografted BALB/c nude mouse assessed as reduction in body weight at 24 mg/kg, ip administered once daily after 16 days; assay type: organism-based; details: in vivo, 384 h
NCI-H460 [4] = test: Antitumor activity against human NCI-H460 cells xenografted in BALB/c nude mouse assessed as tumor growth inhibition at 24 mg/kg, ip administered once daily after 16 days relative to control; assay type: functional; details: 384 h, read-out: TGI
MGC-803 [5] = test: Antitumor activity against human MGC803 cells xenografted in BALB/c nude mouse assessed as tumor growth inhibition at 10 mg/kg, po administered once daily for 18 days measured at post last dose relative to control; assay type: functional; details: MGC-803, po, 432 h, read-out: TGI
NCI-H460 [6] = test: Antitumor activity against human NCI-H460 cells xenografted in BALB/c nude mouse assessed as tumor growth inhibition at 10 mg/kg, po administered once daily after 20 days relative to control; assay type: functional; details: 480 h, read-out: TGI
MGC-803 [7] = test: Antitumor activity against human MGC803 cells xenografted in BALB/c nude mouse assessed as tumor growth inhibition at 5 mg/kg, po administered once daily for 18 days measured at post last dose relative to control; assay type: functional; details: MGC-803, po, 432 h, read-out: TGI
MGC-803 [8] = details: Homo sapiens
Description: Antitumor activity against human MGC803 cells xenografted in po dosed BALB/c nude mouse assessed as tumor growth inhibition administered once daily measured at post last dose

MGC-803 [9] = test: animal or person; details: Mus musculus, MGC-803, po, 432 h, read-out: TGI
in vivo [10] = details: ICR, mouse, in vivo, po, 30 mg/kg
HGC-27 [11] = test: Antitumor activity against human HGC27 cells xenografted in BALB/c nude mouse assessed as tumor growth inhibition at […], po administered once daily for 15 days measured at post last dose relative to control; assay type: functional; details: HGC-27, po, 360 h, read-out: TGI
[12] = mouse, in vivo, po, 30 mg/kg
in vivo [13] = details: ICR, mouse, in vivo, iv, 3 mg/kg
[14] = biological target: Phosphatidylinositol 4,5-bisphosphate 3-kinase catalytic subunit gamma isoform (Homo sapiens, UniProt P48736); test: Inhibition of PI3Kgamma (unknown origin) using PIP2 as substrate by ADP-Glo assay
MDA-MB-231 = test: cells; assay type: functional, cell-based; details: Homo sapiens, MDA-MB-231, 96 h
Description: Cytotoxicity against human MDA-MB-231 cells after 96 hrs by MTT assay

in vitro [15] = details: ICR, mouse, plasma
Description: Protein binding in ICR mouse plasma at 2 uM after 6 hrs by LC-MS/MS analysis

U-87 MG = test: cells; assay type: functional, cell-based, U-87MG ATCC; details: Homo sapiens, 96 h
Description: Cytotoxicity against human U87MG cells after 96 hrs by MTT assay

[16] = biological target: Serine/threonine-protein kinase mTOR (Homo sapiens, UniProt P42345); test: Inhibition of mTOR (unknown origin) using ULight-4E-BP1 peptide as substrate after 30 mins by Lance Ultra assay
in vivo [17] = details: athymic BALB/c nude, mouse, in vivo, po, 10 mg/kg
[18] = biological target: Phosphatidylinositol 4,5-bisphosphate 3-kinase catalytic subunit beta isoform (Homo sapiens, UniProt P42338); test: Inhibition of PI3Kbeta (unknown origin) using PIP2 as substrate by ADP-Glo assay
in vivo [19] = details: ICR, mouse, in vivo, iv, 3 mg/kg; remark: listed apart in the source
Description: Clearance in ICR mouse plasma at 3 mg/kg, iv by LC/MS/MS analysis

NCI-H209 [20] = test: animal or person; details: Mus musculus, NCI-H209, po, read-out: TGI
A549 = test: cells; assay type: functional, cell-based; details: Homo sapiens, A549, 96 h
Description: Cytotoxicity against human A549 cells after 96 hrs by MTT assay

in vivo [21] = details: ICR, mouse, in vivo, iv, 3 mg/kg; remark: listed apart in the source
in vivo [22] = details: ICR, mouse, in vivo, iv, 3 mg/kg; remark: listed apart in the source
Description: Volume of distribution at steady state in ICR mouse plasma at 3 mg/kg, iv by LC/MS/MS analysis

in vivo [23] = details: ICR, mouse, po
Description: Toxicity in po dosed ICR mouse administered as single dose via oral gavage measured after 14 days

in vivo [24] = details: ICR, mouse, in vivo, po, 30 mg/kg; remark: listed apart in the source
Description: Half life in ICR mouse plasma at 30 mg/kg, po by LC/MS/MS analysis

in vivo [25] = details: ICR, mouse, in vivo, iv, 3 mg/kg; remark: listed apart in the source
[26] = biological target: RAC-alpha serine/threonine-protein kinase (Homo sapiens, UniProt P31749); test: Inhibition of AKT1 (unknown origin) using FAM-labeled peptide as substrate by mobility shift assay
NCI-H209 [27] = details: Homo sapiens
Description: Antitumor activity against human NCI-H209 cells xenografted in po dosed BALB/c nude mouse assessed as tumor growth inhibition administered once daily after 19 consecutive days

DU-145 = test: cells; assay type: functional, cell-based; details: Homo sapiens, DU-145, 96 h
Description: Cytotoxicity against human DU145 cells after 96 hrs by MTT assay

in vivo [28] = details: ICR, mouse, in vivo, po, 30 mg/kg; remark: listed apart in the source
[29] = biological target: T1, Phosphatidylinositol 4,5-bisphosphate 3-kinase catalytic subunit delta isoform (Homo sapiens, UniProt O00329); test: Inhibition of PI3Kdelta (unknown origin) using PIP2 as substrate by ADP-Glo assay
T1 sequence (O00329 whole entry): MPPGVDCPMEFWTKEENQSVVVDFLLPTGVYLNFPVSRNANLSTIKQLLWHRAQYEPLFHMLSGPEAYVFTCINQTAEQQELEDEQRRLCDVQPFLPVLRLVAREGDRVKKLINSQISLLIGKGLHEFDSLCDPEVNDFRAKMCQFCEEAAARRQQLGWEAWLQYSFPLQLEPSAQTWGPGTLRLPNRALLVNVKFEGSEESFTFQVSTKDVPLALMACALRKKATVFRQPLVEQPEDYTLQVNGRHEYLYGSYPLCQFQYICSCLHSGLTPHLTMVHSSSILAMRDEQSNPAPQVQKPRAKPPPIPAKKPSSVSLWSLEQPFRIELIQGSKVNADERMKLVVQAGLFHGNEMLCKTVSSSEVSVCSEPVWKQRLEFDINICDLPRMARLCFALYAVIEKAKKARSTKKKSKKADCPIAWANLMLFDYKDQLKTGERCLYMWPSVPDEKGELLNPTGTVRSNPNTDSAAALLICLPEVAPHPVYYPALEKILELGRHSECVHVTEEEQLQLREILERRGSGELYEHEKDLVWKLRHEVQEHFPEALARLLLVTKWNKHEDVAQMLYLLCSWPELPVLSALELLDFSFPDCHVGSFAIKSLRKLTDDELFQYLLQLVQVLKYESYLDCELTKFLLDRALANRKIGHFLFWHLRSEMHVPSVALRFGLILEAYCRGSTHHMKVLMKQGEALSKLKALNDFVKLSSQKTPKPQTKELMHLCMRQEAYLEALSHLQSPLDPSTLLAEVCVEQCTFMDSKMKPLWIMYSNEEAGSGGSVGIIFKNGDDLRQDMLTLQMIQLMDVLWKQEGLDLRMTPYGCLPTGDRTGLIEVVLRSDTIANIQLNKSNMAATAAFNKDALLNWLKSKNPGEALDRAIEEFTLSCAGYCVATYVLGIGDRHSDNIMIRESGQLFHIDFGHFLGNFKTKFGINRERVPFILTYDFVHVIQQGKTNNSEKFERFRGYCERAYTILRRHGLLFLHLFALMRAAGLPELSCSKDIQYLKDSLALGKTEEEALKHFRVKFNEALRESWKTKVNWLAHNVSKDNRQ

NCI-H209 [30] = test: animal or person; details: Mus musculus, NCI-H209, po, read-out: TGI; remark: listed apart in the source
Description: Antitumor activity against human NCI-H209 cells xenografted in BALB/c nude mouse assessed as tumor growth inhibition at 5 mg/kg, po administered once daily after 19 consecutive days relative to control

Mus musculus [31] = test: In vivo inhibition of PI3Kalpha in po dosed athymic BALB/c nude mouse xenografted with human NCI-H460 cells administered as single dose via gavage after 2 to 24 hrs; assay type: functional, organism-based
SH-SY5Y = test: cells; assay type: functional, cell-based; details: Homo sapiens, 96 h
Description: Cytotoxicity against human SH-SY5Y cells after 96 hrs by MTT assay

in vivo [32] = details: ICR, mouse, in vivo, po, 30 mg/kg; remark: listed apart in the source
NCI-H460 [33] = test: animal or person; details: Mus musculus, NCI-H460, po, 480 h, read-out: TGI
Description: Antitumor activity against human NCI-H460 cells xenografted in BALB/c nude mouse assessed as tumor growth inhibition at 5 mg/kg, po administered once daily after 20 days relative to control

HGC-27 [34] = test: cells; assay type: functional, cell-based; details: Homo sapiens, HGC-27, 96 h
Description: Cytotoxicity against human HGC27 cells after 96 hrs by MTT assay

in vivo [35] = details: ICR, mouse, in vivo, iv, 3 mg/kg; remark: listed apart in the source
in vivo [36] = details: ICR, mouse, in vivo, po, 30 mg/kg; remark: listed apart in the source
NCI-H460 [37] = test: Antitumor activity against human NCI-H460 cells xenografted in po dosed athymic BALB/c nude mouse administered as single dose via gavage after 2 to 24 hrs; assay type: functional, organism-based
U-251 = test: cells; assay type: functional, cell-based; details: Homo sapiens, U-251, 96 h
Description: Cytotoxicity against human U251 cells after 96 hrs by MTT assay

in vitro [38] = details: human, plasma
Description: Protein binding in human plasma at 2 uM after 6 hrs by LC-MS/MS analysis

in vivo [39] = details: ICR, mouse, in vivo, iv, 3 mg/kg; remark: listed apart in the source
Description: Half life in ICR mouse plasma at 3 mg/kg, iv by LC/MS/MS analysis

in vivo [40] = details: ICR, mouse, in vivo, po, 30 mg/kg; remark: listed apart in the source
T98G = test: cells; assay type: functional, cell-based; details: Homo sapiens, 96 h
Description: Cytotoxicity against human T98G cells after 96 hrs by MTT assay

PC-3 = test: cells; assay type: functional, cell-based; details: Homo sapiens, PC-3, 96 h
Description: Cytotoxicity against human PC3 cells after 96 hrs by MTT assay

in vivo [41] = details: ICR, mouse, in vivo, po, 30 mg/kg; remark: listed apart in the source
Mus musculus [42] = test: Toxicity in human NCI-H460 cells xenografted BALB/c nude mouse assessed as reduction in body weight at 10 mg/kg, po administered once daily after 20 days; assay type: organism-based; details: in vivo, 480 h
NCI-H460 [43] = test: cells; assay type: functional, cell-based; details: Homo sapiens, NCI-H460, 96 h
Description: Cytotoxicity against human NCI-H460 cells after 96 hrs by MTT assay

[44] = biological target: Phosphatidylinositol 4,5-bisphosphate 3-kinase catalytic subunit alpha isoform (Homo sapiens, UniProt P42336); test: Inhibition of PI3Kalpha (unknown origin) using PIP2 as substrate by Kinase-Glo assay
Chain of Phosphatidylinositol 4,5-bisphosphate 3-kinase catalytic subunit alpha isoform (P42336 whole entry, canonical isoform): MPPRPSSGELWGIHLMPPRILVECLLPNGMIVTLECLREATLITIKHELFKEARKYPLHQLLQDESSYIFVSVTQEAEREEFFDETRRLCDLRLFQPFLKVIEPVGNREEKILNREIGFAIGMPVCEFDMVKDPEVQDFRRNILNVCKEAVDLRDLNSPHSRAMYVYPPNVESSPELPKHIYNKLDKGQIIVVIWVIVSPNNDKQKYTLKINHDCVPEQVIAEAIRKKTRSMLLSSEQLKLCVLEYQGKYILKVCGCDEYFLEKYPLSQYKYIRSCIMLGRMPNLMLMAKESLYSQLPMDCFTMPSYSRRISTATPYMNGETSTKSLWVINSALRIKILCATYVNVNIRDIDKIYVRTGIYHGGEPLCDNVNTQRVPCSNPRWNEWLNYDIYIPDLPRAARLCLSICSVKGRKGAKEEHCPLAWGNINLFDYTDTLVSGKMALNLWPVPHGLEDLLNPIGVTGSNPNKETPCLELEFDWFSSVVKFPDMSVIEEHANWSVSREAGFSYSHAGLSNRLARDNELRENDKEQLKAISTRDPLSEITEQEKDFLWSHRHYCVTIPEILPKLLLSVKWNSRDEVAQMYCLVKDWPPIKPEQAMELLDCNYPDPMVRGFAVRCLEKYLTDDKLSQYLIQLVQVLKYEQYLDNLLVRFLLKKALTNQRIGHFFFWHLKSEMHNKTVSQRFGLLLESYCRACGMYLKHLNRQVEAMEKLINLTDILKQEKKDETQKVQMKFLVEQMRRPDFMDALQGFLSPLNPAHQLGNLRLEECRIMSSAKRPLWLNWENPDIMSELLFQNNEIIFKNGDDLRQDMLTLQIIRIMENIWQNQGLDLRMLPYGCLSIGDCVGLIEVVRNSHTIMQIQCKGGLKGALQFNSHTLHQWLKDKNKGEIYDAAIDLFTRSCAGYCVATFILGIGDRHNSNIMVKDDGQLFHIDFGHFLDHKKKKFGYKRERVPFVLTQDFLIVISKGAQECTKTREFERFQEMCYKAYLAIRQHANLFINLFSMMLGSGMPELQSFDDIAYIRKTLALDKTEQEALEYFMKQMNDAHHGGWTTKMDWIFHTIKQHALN

Chain of Phosphatidylinositol 4,5-bisphosphate 3-kinase catalytic subunit beta isoform (P42338 whole entry, canonical isoform): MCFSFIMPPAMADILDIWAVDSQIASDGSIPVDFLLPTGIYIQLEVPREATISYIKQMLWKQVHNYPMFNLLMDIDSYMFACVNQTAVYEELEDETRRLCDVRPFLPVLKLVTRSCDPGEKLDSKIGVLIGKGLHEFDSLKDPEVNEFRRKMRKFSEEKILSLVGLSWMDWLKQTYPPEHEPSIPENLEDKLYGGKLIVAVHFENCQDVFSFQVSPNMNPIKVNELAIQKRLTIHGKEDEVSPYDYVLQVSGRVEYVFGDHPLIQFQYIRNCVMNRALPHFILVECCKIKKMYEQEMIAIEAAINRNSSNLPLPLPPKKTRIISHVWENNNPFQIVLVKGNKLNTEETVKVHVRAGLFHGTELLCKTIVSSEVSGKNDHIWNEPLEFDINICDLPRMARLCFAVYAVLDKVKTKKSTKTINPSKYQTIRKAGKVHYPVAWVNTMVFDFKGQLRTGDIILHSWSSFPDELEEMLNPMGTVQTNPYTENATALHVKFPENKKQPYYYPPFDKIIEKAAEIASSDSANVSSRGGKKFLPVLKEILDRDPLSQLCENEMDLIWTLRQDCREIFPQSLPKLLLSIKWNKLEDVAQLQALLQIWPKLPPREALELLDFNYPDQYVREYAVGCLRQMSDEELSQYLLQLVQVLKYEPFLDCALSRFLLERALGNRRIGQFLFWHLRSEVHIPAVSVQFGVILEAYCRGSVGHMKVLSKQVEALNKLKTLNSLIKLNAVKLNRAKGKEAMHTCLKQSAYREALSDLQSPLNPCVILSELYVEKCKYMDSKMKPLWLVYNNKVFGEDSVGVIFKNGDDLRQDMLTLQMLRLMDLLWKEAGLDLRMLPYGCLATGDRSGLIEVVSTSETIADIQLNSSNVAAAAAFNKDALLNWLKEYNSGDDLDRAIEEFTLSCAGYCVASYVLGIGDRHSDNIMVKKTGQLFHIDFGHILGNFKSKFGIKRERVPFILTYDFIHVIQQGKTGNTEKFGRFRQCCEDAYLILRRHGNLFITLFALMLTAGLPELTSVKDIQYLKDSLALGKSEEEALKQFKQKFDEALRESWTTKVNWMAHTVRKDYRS
Chain of RAC-alpha serine/threonine-protein kinase (P31749 whole entry): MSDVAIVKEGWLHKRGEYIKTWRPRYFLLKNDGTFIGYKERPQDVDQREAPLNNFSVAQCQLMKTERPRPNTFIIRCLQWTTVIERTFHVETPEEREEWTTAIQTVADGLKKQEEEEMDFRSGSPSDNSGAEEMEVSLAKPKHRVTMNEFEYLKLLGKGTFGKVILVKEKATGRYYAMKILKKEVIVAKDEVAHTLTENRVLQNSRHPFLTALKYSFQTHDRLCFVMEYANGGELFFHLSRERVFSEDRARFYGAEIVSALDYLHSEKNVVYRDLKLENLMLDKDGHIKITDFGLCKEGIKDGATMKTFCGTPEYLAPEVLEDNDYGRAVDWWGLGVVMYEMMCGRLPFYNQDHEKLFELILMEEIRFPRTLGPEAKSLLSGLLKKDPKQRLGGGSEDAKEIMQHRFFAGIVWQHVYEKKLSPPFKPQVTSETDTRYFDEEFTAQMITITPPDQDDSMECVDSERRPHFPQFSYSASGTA
Chain of Phosphatidylinositol 4,5-bisphosphate 3-kinase catalytic subunit gamma isoform (P48736 whole entry, canonical isoform): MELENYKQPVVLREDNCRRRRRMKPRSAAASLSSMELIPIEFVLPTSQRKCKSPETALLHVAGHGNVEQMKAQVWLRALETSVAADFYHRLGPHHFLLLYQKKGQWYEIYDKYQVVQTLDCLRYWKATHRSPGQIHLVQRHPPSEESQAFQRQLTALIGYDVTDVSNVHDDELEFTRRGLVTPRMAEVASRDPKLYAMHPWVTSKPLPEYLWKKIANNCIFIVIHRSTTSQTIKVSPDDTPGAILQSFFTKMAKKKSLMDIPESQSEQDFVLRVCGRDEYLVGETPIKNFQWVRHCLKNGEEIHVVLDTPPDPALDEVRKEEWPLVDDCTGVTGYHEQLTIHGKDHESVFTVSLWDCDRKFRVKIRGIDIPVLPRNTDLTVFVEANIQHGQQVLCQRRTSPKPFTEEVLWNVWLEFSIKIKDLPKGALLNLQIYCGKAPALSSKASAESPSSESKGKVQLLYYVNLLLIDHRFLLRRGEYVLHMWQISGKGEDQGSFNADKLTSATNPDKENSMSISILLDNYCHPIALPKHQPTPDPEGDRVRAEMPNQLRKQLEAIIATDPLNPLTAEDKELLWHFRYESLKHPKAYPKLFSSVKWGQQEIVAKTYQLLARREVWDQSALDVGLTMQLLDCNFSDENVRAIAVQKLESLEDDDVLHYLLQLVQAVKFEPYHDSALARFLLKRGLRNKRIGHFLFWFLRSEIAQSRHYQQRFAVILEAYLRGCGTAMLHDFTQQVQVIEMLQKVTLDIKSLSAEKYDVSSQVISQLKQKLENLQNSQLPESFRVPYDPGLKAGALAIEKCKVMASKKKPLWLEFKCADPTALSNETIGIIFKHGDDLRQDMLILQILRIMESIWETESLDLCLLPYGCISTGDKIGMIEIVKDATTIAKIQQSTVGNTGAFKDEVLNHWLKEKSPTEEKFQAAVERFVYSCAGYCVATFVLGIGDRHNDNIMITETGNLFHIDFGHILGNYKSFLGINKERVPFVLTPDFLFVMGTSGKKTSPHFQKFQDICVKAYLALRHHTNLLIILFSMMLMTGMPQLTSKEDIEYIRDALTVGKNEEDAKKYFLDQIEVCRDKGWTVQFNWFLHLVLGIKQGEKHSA

In the case of `CC(=O)O[C@H]1C(=O)[C@@]2(C)[C@H]([C@H](OC(=O)c3ccccc3)[C@]3(O)C[C@H](OC(=O)[C@H](O)[C@@H](NC(=O)c4ccccc4)c4ccccc4)C(C)=C1C3(C)C)[C@]1(OC(C)=O)CO[C@@H]1C[C@@H]2O` [PACLITAXEL], the inhibition in vivo at 24 mg/kg (NCI-H460 [1]) is reported as 85.9%, the Activity (Mus musculus [2]) is reported as “Toxic” and the Activity (Mus musculus [3]) is reported as “Toxic”. For the same compound, the inhibition in vivo at 24 mg/kg (NCI-H460 [4]) was 75.4%.
For `COc1ncc(-c2cc(OC3CCOCC3)c3nc(N)nc(C)c3c2)cc1NS(=O)(=O)c1ccc(F)cc1F`, the inhibition in vivo at 10 mg/kg (MGC-803 [5]) was 77.7%, the inhibition in vivo at 10 mg/kg (NCI-H460 [6]) was 79.8% and the inhibition in vivo at 5 mg/kg (MGC-803 [7]) was 77.2%. The TGI (MGC-803 [8]) was “Dose-dependent effect”, the inhibition in vivo at […] (MGC-803 [9]) was 68.2% and the Cmax (in vivo [10]) was 93 ng/g. It also gave an inhibition in vivo at […] (HGC-27 [11]) of 92.2%, an AUCt [12] of 234 ng·h/g and an AUC(0-t) (in vivo [13]) of 7190 ng·h/mL. It also gave an IC50 [14] of 1.3 nM, an IC50 (MDA-MB-231) of 180 nM and a fraction unbound at 6 h, 2 µM (in vitro [15]) of 0.0823. It also gave an IC50 (U-87 MG) of 120 nM, an IC50 [16] of 7.9 nM and an AUC(0-t) at 24 h (in vivo [17]) of 11800 ng·h/mL. For the same compound, the IC50 [18] was 0.53 nM, the clearance (in vivo [19]) was 7.58 mL/min/kg and the inhibition in vivo at […] (NCI-H209 [20]) was 80.9%. It also gave an IC50 (A549) of 53 nM, a Cmax (in vivo [21]) of 10300 ng/mL and a Vd (in vivo [22]) of 0.853 L/kg. It also gave an MTD at 336 h (in vivo [23]) of over 40 mg/kg, a half-life (in vivo [24]) of 666 min and a Tmax (in vivo [25]) of 1.8 min. For the same compound, the IC50 [26] was over 10 µM, the TGI (NCI-H209 [27]) was “Dose-dependent effect” and the IC50 (DU-145) was 1700 nM. It also gave a Cmax (in vivo [28]) of 4290 ng/mL, an IC50 [29] of 0.18 nM and an inhibition in vivo at 5 mg/kg (NCI-H209 [30]) of 91.7%. It also gave an IC90 (Mus musculus [31]) of 0.81 ng/mL (≈ 0.00145 µM), an IC50 (SH-SY5Y) of 280 nM and an AUC(0-inf) (in vivo [32]) of 36200 ng·h/mL. For the same compound, the inhibition in vivo at 5 mg/kg (NCI-H460 [33]) was 72.5%, the IC50 (HGC-27 [34]) was 25 nM and the AUC(0-inf) (in vivo [35]) was 7240 ng·h/mL. The Tmax (in vivo [36]) was 30 min, the IC50 (NCI-H460 [37]) was 0.016 µg/mL (≈ 0.0287 µM) and the IC50 (U-251) was 320 nM. The fraction unbound at 6 h, 2 µM (in vitro [38]) was 0.0422, the half-life (in vivo [39]) was 88.8 min and the AUC(0-t) (in vivo [40]) was 23900 ng·h/mL. It also gave an IC50 (T98G) of 420 nM, an IC50 (PC-3) of 150 nM and a bioavailability (in vivo [41]) of 33.2%.
For `COc1ccc(-c2cc3c(C)nc(N)nc3n([C@H]3CC[C@H](OCCO)CC3)c2=O)cn1` [PF-04691502], the inhibition in vivo at 10 mg/kg (NCI-H460 [6]) was 67.4%, the Activity (Mus musculus [42]) was “Toxic” and the IC50 (NCI-H460 [43]) was 200 nM.
`COc1ncc(-c2cc(OC3CCOCC3)c3nc(N)nc(C)c3c2)cc1F` showed an IC50 [44] of 16 nM and an IC50 (NCI-H460 [43]) of 1100 nM.
Work on `COc1ncc(-c2cc(OC3CCOCC3)c3nc(N(C)C)nc(C)c3c2)cc1NS(=O)(=O)c1ccc(F)cc1F` yielded an IC50 [44] of 125 nM and an IC50 (NCI-H460 [43]) of 4300 nM.
